For this test, the target named is IDH2 R140Q (Homo sapiens (Human), UniProt P48735, R140Q). The test can be described thus: IDH2 R140Q enzymatic cofactor depletion assay (diaphorase/resazurin). It is filed as biochemical. The settings on record: IDH2 R140Q enzyme, one hour preincubation with compound, one hour reaction; read-out: Enz R140Q. In short, it runs like this:
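Enzyme preincubated with compound 1 h at room temperature, then reaction started with 50 μM NADPH and 6.3 mM α-KG and run 1 h at room temperature. Remaining NADPH measured by diaphorase (36 μg/ml)/resazurin (60 μM) stop mix, fluorescence read at Ex544/Em590 after 1 min.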
(Resazurin is reduced to fluorescent resorufin, in cell work by metabolically active cells.)

Data on 39 molecules can be found in patent US10202339B2, “Therapeutic compounds and compositions” (AGIOS PHARMACEUTICALS, INC., priority 2012, dated 2019).

The structures appear in SMILES notation. Some results are limits rather than exact numbers.

Sequence of IDH2 R140Q (P48735 40-452 R140Q): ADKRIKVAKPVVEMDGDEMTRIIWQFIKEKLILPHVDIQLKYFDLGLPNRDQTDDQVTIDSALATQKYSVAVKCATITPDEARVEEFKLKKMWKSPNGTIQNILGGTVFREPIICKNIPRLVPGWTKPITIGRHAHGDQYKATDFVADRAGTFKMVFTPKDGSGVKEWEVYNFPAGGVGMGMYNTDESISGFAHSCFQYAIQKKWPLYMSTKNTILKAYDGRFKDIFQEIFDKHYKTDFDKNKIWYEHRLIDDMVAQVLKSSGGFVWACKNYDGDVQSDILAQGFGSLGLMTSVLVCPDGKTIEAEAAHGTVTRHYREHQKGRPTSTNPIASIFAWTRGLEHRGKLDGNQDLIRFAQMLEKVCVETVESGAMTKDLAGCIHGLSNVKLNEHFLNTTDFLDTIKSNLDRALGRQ

Regarding `CCCNS(=O)(=O)c1ccc(-c2ccsc2)c(NC(=O)Nc2cccc(C(F)(F)F)c2)c1` [Compound 113, N-propyl-4-(thiophen-3-yl)-3-(3-(3-(trifluoromethyl)phenyl)ureido)benzenesulfonamide], the IC50 lay in the range of 100 to 1000 nM. Regarding `CCCCNS(=O)(=O)c1ccc(-c2ccsc2)c(NC(=O)Nc2cccc(C(F)(F)F)c2)c1` [Compound 114, N-butyl-4-(thiophen-3-yl)-3-(3-(3-(trifluoromethyl)phenyl)ureido)benzenesulfonamide], the IC50 was 100 to 1000 nM.

Consider `CC(C)NS(=O)(=O)c1ccc(-c2ccsc2)c(NC(=O)Nc2cccc(C(F)(F)F)c2)c1` [Compound 115, N-isopropyl-4-(thiophen-3-yl)-3-(3-(3-(trifluoromethyl)phenyl)ureido)benzenesulfonamide], for which the IC50 lay within 100 to 1000 nM. As for `CC(C)CNS(=O)(=O)c1ccc(-c2ccsc2)c(NC(=O)Nc2cccc(C(F)(F)F)c2)c1` [Compound 116, N-isobutyl-4-(thiophen-3-yl)-3-(3-(3-(trifluoromethyl)phenyl)ureido)benzenesulfonamide], the IC50 lay in the range of 100 to 1000 nM. `CCC(C)NS(=O)(=O)c1ccc(-c2ccsc2)c(NC(=O)Nc2cccc(C(F)(F)F)c2)c1` (stereo not drawn) [Compound 117, N-(sec-butyl)-4-(thiophen-3-yl)-3-(3-(3-(trifluoromethyl)phenyl)ureido)benzenesulfonamide]: the IC50 fell in the range of 100 to 1000 nM. With `CC(C)(C)NS(=O)(=O)c1ccc(-c2ccsc2)c(NC(=O)Nc2cccc(C(F)(F)F)c2)c1` [Compound 118, N-(tert-butyl)-4-(thiophen-3-yl)-3-(3-(3-(trifluoromethyl)phenyl)ureido)benzenesulfonamide] the figure was 100 to 1000 nM; with `C=CCNS(=O)(=O)c1ccc(-c2ccsc2)c(NC(=O)Nc2cccc(C(F)(F)F)c2)c1` [Compound 119, N-allyl-4-(thiophen-3-yl)-3-(3-(3-(trifluoromethyl)phenyl)ureido)benzenesulfonamide], 100 to 1000 nM.

With `O=C(Nc1cccc(C(F)(F)F)c1)Nc1cc(S(=O)(=O)NCCO)ccc1-c1ccsc1` [Compound 120, N-(2-hydroxyethyl)-4-(thiophen-3-yl)-3-(3-(3-(trifluoromethyl)phenyl)ureido)benzenesulfonamide], the IC50 fell in the range of 100 to 1000 nM.

Turning to `COCCNS(=O)(=O)c1ccc(-c2ccsc2)c(NC(=O)Nc2cccc(C(F)(F)F)c2)c1` [Compound 121, N-(2-methoxyethyl)-4-(thiophen-3-yl)-3-(3-(3-(trifluoromethyl)phenyl)ureido)benzenesulfonamide], the IC50 lay in the range of 100 to 1000 nM. Consider `COCCCNS(=O)(=O)c1ccc(-c2ccsc2)c(NC(=O)Nc2cccc(C(F)(F)F)c2)c1` [Compound 122, N-(3-methoxypropyl)-4-(thiophen-3-yl)-3-(3-(3-(trifluoromethyl)phenyl)ureido)benzenesulfonamide], for which the IC50 fell in the range of 100 to 1000 nM. For the molecule `CC(C)C(CO)NS(=O)(=O)c1ccc(-c2ccsc2)c(NC(=O)Nc2cccc(C(F)(F)F)c2)c1` (stereo not drawn) [Compound 123, N-(1-hydroxy-3-methylbutan-2-yl)-4-(thiophen-3-yl)-3-(3-(3-(trifluoromethyl)phenyl)ureido)benzene sulfonamide], the IC50 fell in the range of 100 to 1000 nM.

Turning to `O=C(Nc1cccc(C(F)(F)F)c1)Nc1cc(S(=O)(=O)NC2CCC2)ccc1-c1ccsc1` [Compound 125, N-cyclobutyl-4-(thiophen-3-yl)-3-(3-(3-(trifluoromethyl)phenyl)ureido)benzenesulfonamide], the IC50 lay within 100 to 1000 nM.

For the molecule `O=C(Nc1cccc(C(F)(F)F)c1)Nc1cc(S(=O)(=O)NC2CCCC2)ccc1-c1ccsc1` [Compound 126, N-cyclopentyl-4-(thiophen-3-yl)-3-(3-(3-(trifluoromethyl)phenyl)ureido)benzenesulfonamide], the IC50 was 100 to 1000 nM. Take `O=C(Nc1cccc(C(F)(F)F)c1)Nc1cc(S(=O)(=O)NCC2CC2)ccc1-c1ccsc1` [Compound 127, N-(cyclopropylmethyl)-4-(thiophen-3-yl)-3-(3-(3-(trifluoromethyl)phenyl)ureido)benzenesulfonamide]: the IC50 is 100 to 1000 nM. On to `O=C(Nc1cccc(C(F)(F)F)c1)Nc1cc(S(=O)(=O)NCC2CCC2)ccc1-c1ccsc1` [Compound 128, N-(cyclobutylmethyl)-4-(thiophen-3-yl)-3-(3-(3-(trifluoromethyl)phenyl)ureido)benzenesulfonamide], for which the IC50 was 100 to 1000 nM.

With `O=C(Nc1cccc(C(F)(F)F)c1)Nc1cc(S(=O)(=O)NCC2CCCC2)ccc1-c1ccsc1` [Compound 129, N-(cyclopentylmethyl)-4-(thiophen-3-yl)-3-(3-(3-(trifluoromethyl)phenyl)ureido)benzenesulfonamide], the IC50 is 100 to 1000 nM. With `O=C(Nc1cccc(C(F)(F)F)c1)Nc1cc(S(=O)(=O)NCC(F)(F)F)ccc1-c1ccsc1` [Compound 130, 4-(thiophen-3-yl)-N-(2,2,2-trifluoroethyl)-3-(3-(3-(trifluoromethyl)phenyl)ureido)benzenesulfonamide] the figure was 100 to 1000 nM. On to `O=C(Nc1cccc(C(F)(F)F)c1)Nc1cc(S(=O)(=O)N2CCOCC2)ccc1-c1ccsc1` [Compound 131, 1-(5-(morpholinosulfonyl)-2-(thiophen-3-yl)phenyl)-3-(3-(trifluoromethyl)phenyl)urea], for which the IC50 was in the range of 100 to 1000 nM.

As to `O=C(Nc1cccc(C(F)(F)F)c1)Nc1cc(S(=O)(=O)NC2CCOCC2)ccc1-c1ccsc1` [Compound 132, N-(tetrahydro-2H-pyran-4-yl)-4-(thiophen-3-yl)-3-(3-(3-(trifluoromethyl)phenyl)ureido)benzene sulfonamide], the IC50 fell in the range of 100 to 1000 nM. Regarding `O=C(Nc1cccc(C(F)(F)F)c1)Nc1cc(S(=O)(=O)NCC2CCOCC2)ccc1-c1ccsc1` [Compound 133, N-((tetrahydro-2H-pyran-4-yl)methyl)-4-(thiophen-3-yl)-3-(3-(3-(trifluoromethyl)phenyl)ureido)benzene sulfonamide], the IC50 lay within 100 to 1000 nM.

Take `O=C(Nc1cccc(C(F)(F)F)c1)Nc1cc(S(=O)(=O)NC2CCSCC2)ccc1-c1ccsc1` [Compound 134, N-(tetrahydro-2H-thiopyran-4-yl)-4-(thiophen-3-yl)-3-(3-(3-(trifluoromethyl)phenyl)ureido)benzene sulfonamide]: the IC50 lay within 100 to 1000 nM. On to `O=C(Nc1cccc(C(F)(F)F)c1)Nc1cc(S(=O)(=O)N2CCS(=O)(=O)CC2)ccc1-c1ccsc1` [Compound 135, 1-(5-((1,1-dioxidothiomorpholino)sulfonyl)-2-(thiophen-3-yl)phenyl)-3-(3-(trifluoromethyl)phenyl)urea], for which the IC50 is 100 to 1000 nM. `O=C(Nc1cccc(C(F)(F)F)c1)Nc1cc(S(=O)(=O)NCc2ccccc2)ccc1-c1ccsc1` [Compound 136, N-benzyl-4-(thiophen-3-yl)-3-(3-(3-(trifluoromethyl)phenyl)ureido)benzenesulfonamide]: the IC50 lay in the range of 100 to 1000 nM. The same measure for `CN(C)S(=O)(=O)c1ccc(-c2ccsc2)c(NC(=O)Nc2cccc(C(F)(F)F)c2)c1` [Compound 137]: 1000 to 10000 nM.

Turning to `CONS(=O)(=O)c1ccc(-c2ccsc2)c(NC(=O)Nc2cccc(C(F)(F)F)c2)c1` [Compound 138, N-methoxy-4-(thiophen-3-yl)-3-(3-(3-(trifluoromethyl)phenyl)ureido)benzenesulfonamide], the IC50 was in the range of 100 to 1000 nM. For `CCONS(=O)(=O)c1ccc(-c2ccsc2)c(NC(=O)Nc2cccc(C(F)(F)F)c2)c1` [Compound 139, N-ethoxy-4-(thiophen-3-yl)-3-(3-(3-(trifluoromethyl)phenyl)ureido)benzenesulfonamide], the IC50 fell in the range of 100 to 1000 nM.

`O=C(Nc1cccc(C(F)(F)F)c1)Nc1cc(S(=O)(=O)N2CCC2)ccc1-c1ccsc1` [Compound 140]: the IC50 was in the range of 1000 to 10000 nM. For the molecule `O=C(Nc1cccc(C(F)(F)F)c1)Nc1cc(S(=O)(=O)N2CCCC2)ccc1-c1ccsc1` [Compound 141], the IC50 is 1000 to 10000 nM. As for `O=C(Nc1cccc(C(F)(F)F)c1)Nc1cc(S(=O)(=O)Nc2ccccc2O)ccc1-c1ccsc1` [Compound 142], the IC50 is above 10000 nM. With `CN(c1ccccc1)S(=O)(=O)c1ccc(-c2ccsc2)c(NC(=O)Nc2cccc(C(F)(F)F)c2)c1` [Compound 143] the figure was 1000 to 10000 nM; with `C[C@@H](NS(=O)(=O)c1ccc(-c2ccsc2)c(NC(=O)Nc2cccc(C(F)(F)F)c2)c1)c1ccccc1` [Compound 144], 1000 to 10000 nM; with `C[C@H](NS(=O)(=O)c1ccc(-c2ccsc2)c(NC(=O)Nc2cccc(C(F)(F)F)c2)c1)c1ccccc1` [Compound 145], 1000 to 10000 nM. For `O=C(Nc1cccc(C(F)(F)F)c1)Nc1cc(S(=O)(=O)Nc2ccc(O)cc2)ccc1-c1ccsc1` [Compound 146, N-(4-hydroxyphenyl)-4-(thiophen-3-yl)-3-(3-(3-(trifluoromethyl)phenyl)ureido)benzenesulfonamide], the IC50 fell in the range of 1000 to 10000 nM. Turning to `O=C(Nc1cccc(C(F)(F)F)c1)Nc1cc(S(=O)(=O)Nc2cccc(C(F)(F)F)c2)ccc1-c1ccsc1` [Compound 147], the IC50 lay in the range of 1000 to 10000 nM. Regarding `O=C(Nc1cccc(C(F)(F)F)c1)Nc1cc(S(=O)(=O)Nc2cc[nH]n2)ccc1-c1ccsc1` [Compound 148], the IC50 lay in the range of 1000 to 10000 nM. With `O=C(Nc1cccc(C(F)(F)F)c1)Nc1cc(S(=O)(=O)Nc2ccccn2)ccc1-c1ccsc1` [Compound 149] the figure was 1000 to 10000 nM; with `O=C(Nc1cccc(C(F)(F)F)c1)Nc1cc(S(=O)(=O)Nc2cccnc2)ccc1-c1ccsc1` [Compound 150], 1000 to 10000 nM; with `CC1(NS(=O)(=O)c2ccc(-c3ccsc3)c(NC(=O)Nc3cccc(C(F)(F)F)c3)c2)CC1` [Compound 151, N-(1-methylcyclopropyl)-4-(thiophen-3-yl)-3-(3-(3-(trifluoromethyl)phenyl)ureido)benzenesulfonamide], 100 to 1000 nM. Regarding `CC1CC1NS(=O)(=O)c1ccc(-c2ccsc2)c(NC(=O)Nc2cccc(C(F)(F)F)c2)c1` (stereo not drawn) [Compound 152, N-(2-methylcyclopropyl)-4-(thiophen-3-yl)-3-(3-(3-(trifluoromethyl)phenyl)ureido)benzenesulfonamide], the IC50 was 100 to 1000 nM.
